Reference: publication PMC4503980 (Scientific Reports, 2015)

What was measured:
Format in all cases: binding
[1] = target: T1, TAMRA-nNOS/PSD-95-PDZ1 interaction (Homo sapiens, UniProt P29475+P78352, V36C); assay: 'direct' FP assay, TAMRA-nNOS / PDZ1 (saturation and inhibition)
T1 construct: nNOS-PDZ (12–130, human); PDZ1 (61-151); made in house; host or cells: E. coli
Experimental: The assay was established by creating a fluorescent version of nNOS-PDZ by TAMRA-labelling nNOS-PDZ via an introduced cysteine residue (V36C). […] However, up to 7.3 μM no inhibition of TAMRA-nNOS/PSD-95-PDZ interactions could be measured (data not shown).
(a) Saturation curves between TAMRA-nNOS (5 nM) and PDZ1, PDZ2, and PDZ1-2 of PSD-95. […] Error bars indicate SEM based on three individual measurements.
nNOS-PDZ (12–130, human) and α-Syntrophin-PDZ (82–200, human), both comprising an N-terminal His-tag/FXa-site sequence ([…]), were likewise expressed in E. coli and purified by HisTrap chromatography followed by gel-filtration as described in details previously. To make the TAMRA-labelled nNOS-PDZ, mutant nNOS-PDZ (V36C) protein was generated by standard site-directed mutagenesis and characterized as described previously. […]
(§1) Incubation time was 10–15 minutes (room temperature), and the assay was performed in a 1 × TBS buffer (150 mM NaCl, 10 mM Tris, pH 7.4) using black flat-bottom 384-well plates (Corning Life Sciences, NY) and a Safire2 plate-reader (Tecan, Männedorf, Switzerland). […] TAMRA- and Cy5-probes were measured at excitation/emission values of 530/585 nm (bandwidth = 20 nm) and 635/670 nm (bandwidth = 15 nm), respectively. […]

[2] = target: PSD-95-PDZ2 (Homo sapiens, UniProt P78352); assay: ITC titration into PSD-95-PDZ2; design: PSD-95-PDZ2 (157–249, human); made in house; conditions: 100 μM protein in cell, 750 μM compound in syringe, 1% DMSO, pH 6.3, 25 °C
Text: Unlike the FP experiments above, which rely on inhibition of interaction partners, the ITC method is a direct measure of binding, regardless of where it takes place on the protein.
Figure 5 ITC curves. Plots showing titrations into PDZ domains fitted to a one-site model.
For isothermal titration calorimetry (ITC) and NMR, PSD-95-PDZ2 (157–249, human) was expressed and purified as described previously. The sequence for the extended Mus musculus nNOS-PDZ (residues 12–134, Uniprot Q9JJ30) was sub-cloned into a pETM11 vector using cloning sites Nco1 and Kpn1, and the protein was expressed and purified following a similar protocol to that used for the production of PSD-95-PDZ2.
All ITC experiments were carried out at 25 °C on an iTC200 Microcalorimeter (GE Healthcare) with a 200 μL cell capacity and 40 μL syringe volume. The buffer used for all solutions was 20 mM phosphate buffer at pH 6.3; each experiment consisted of an initial injection of 0.5 μL, followed by fifteen 2.39 μL injections before a final injection of 1.89 μL. […] In both cases no heat exchange was detected, confirming that there was appropriate match of buffer conditions with no indication of dilution effects. […] For the nNOS-PDZ/PSD-95-PDZ2 interaction, 100 μM PDZ2 in the cell was titrated with 750 μM nNOS-PDZ. […] All data was analysed using the Origin®7 software programme.

[3] = target: T2, PDZ2 of PSD-95 (Homo sapiens, UniProt P78352); assay: FP inhibition assay, Cy5-GluN2B probe / PDZ2; conditions: concentrations reaching 500–1800 μM; Cy5-GluN2B 50 nM; [PDZ2] = 6 μM
T2 construct: PDZ2 (155-249); made in house; host or cells: E. coli BL21-DE3 pLysS
Experimental: Fluorescent probes were made by attaching fluorophores (Cy5) to C-terminal 10- or 11-mer (C10 or C11) peptide ligands representing canonical and natural occurring protein partners (Supplementary Table S1). […] (Fig. 2).
(b) Cy5-GluN2B as probe (50 nM), [PDZ2] = 6 μM. (c) Cy5-CRIPT as probe (50 nM), [PDZ3] = 5 μM. […] Error bars indicate SEM based on three individual measurements. […]
as §1
FP values were fitted to the general equation: Y = Bottom + (Top–Bottom)/[1 + (10^(X-logIC50)*HillSlope)], where X is the logarithmic value of peptide/compound concentration, and Y is the experimental FP values. Competitive inhibition constants, Ki values, were calculated from the IC50 values to quantify affinities between test substance and protein[42]. […]

| Compound | inhibition of TAMRA-nNOS/PDZ1 interaction ([1]; up to 7.3 μM (fluorescence artefacts above), data not shown) | binding to PSD-95-PDZ2 by ITC [2] | inhibition of probe-PDZ interaction (PDZ2) [3] | inhibition of TAMRA-nNOS/PDZ1 interaction ([1]; tested at up to 1200 μM, TAMRA-nNOS 5 nM, PDZ1 7.5 μM) |
| --- | --- | --- | --- | --- |
| Oc1c(Cl)cc(Cl)cc1CNc1ccc2[nH]nnc2c1 [IC87201, 2-((1H-Benzo[d][1–3]triazol-5-ylamino)methyl)-4-6-dichlorophenol] | no inhibition | does not bind | did not inhibit | – |
| O=C(O)c1ccc(NCc2cc(Cl)cc(Cl)c2O)cc1O [ZL006, 4-((3,5-Dichloro-2-hydroxybenzyl)amino)-2-hydroxybenzoic acid] | – | binding was too weak to produce a binding isotherm | did not inhibit | no activity |
